According to publication PMC9650428, “Mutagenesis and functional analysis of SotB: A multidrug transporter of the major facilitator superfamily from Escherichia coli” (Frontiers in Microbiology, 2022):
Substitutions are numbered along the chain they refer to.

Experiments:
[1] = system: sotB-deletion E. coli MG1655 strain; assay: Growth curve (L-arabinose inhibition) assay, sotB-deletion MG1655; format: cell-based, Escherichia coli
Excerpt: In the process of sotB gene knockout, two plasmids were introduced into E. coli MG1655 strain: the plasmid pEcCas expressing Cas9 protein (kanamycin resistance) and the plasmid pEcgRNA/sotB expressing related gRNA (spectinomycin resistance). The pEcCas plasmid was successfully eliminated in this study. […] Thus, the sotB-deletion strain has resistance to spectinomycin. In order to carry out the related L-arabinose inhibition assay more strictly, the same plasmid (pEcgRNA/sotB) was then transformed into intact E. coli MG1655 cells, and the growth conditions of the two strains were measured as follows: The E. coli MG1655 cells (intact cells and sotB-deletion cells) were grown in liquid LB medium containing spectinomycin (50 μg/ml) at 37°C for overnight. The cells were then diluted to an OD600 value of 0.8 with liquid LB medium containing spectinomycin (50 μg/ml). Then, the cells were further diluted 1,000 times with liquid LB medium containing spectinomycin (50 μg/ml). The diluted cells were added to a 96-well plate (200 μl/well). Then, L-arabinose was added with final concentrations of 0 μM, 10 μM, 100 μM, 1 mM, 10 mM, and 100 mM, respectively. The 96-well plate was incubated at 37°C, and the OD600 value was measured every 1 h with a microplate reader. […]

[2] = system: intact E. coli MG1655 strain; assay: Growth curve (L-arabinose inhibition / D-xylose competition) assay, intact MG1655; format: cell-based, Escherichia coli
Excerpt: In the process of sotB gene knockout, two plasmids were introduced into E. coli MG1655 strain: the plasmid pEcCas expressing Cas9 protein (kanamycin resistance) and the plasmid pEcgRNA/sotB expressing related gRNA (spectinomycin resistance). The pEcCas plasmid was successfully eliminated in this study. […] Thus, the sotB-deletion strain has resistance to spectinomycin. In order to carry out the related L-arabinose inhibition assay more strictly, the same plasmid (pEcgRNA/sotB) was then transformed into intact E. coli MG1655 cells, and the growth conditions of the two strains were measured as follows: The E. coli MG1655 cells (intact cells and sotB-deletion cells) were grown in liquid LB medium containing spectinomycin (50 μg/ml) at 37°C for overnight. The cells were then diluted to an OD600 value of 0.8 with liquid LB medium containing spectinomycin (50 μg/ml). Then, the cells were further diluted 1,000 times with liquid LB medium containing spectinomycin (50 μg/ml). The diluted cells were added to a 96-well plate (200 μl/well). Then, L-arabinose was added with final concentrations of 0 μM, 10 μM, 100 μM, 1 mM, 10 mM, and 100 mM, respectively. The 96-well plate was incubated at 37°C, and the OD600 value was measured every 1 h with a microplate reader. For the competition assay, the intact MG1655 cells diluted 1,000 times were divided into two parts and then added into 96-well plate (200 μl/well). One part was directly added with D-xylose at a final concentration of 0, 1, and 10 mM, respectively; the other part was first added with L-arabinose at a final concentration of 10 mM, then D-xylose was added with final concentrations of 0, 1, and 10 mM, respectively. The method of growth curve measurement is the same as above. All the experiments were repeated at least three times.

SotB E29A = target: T1, SotB E29A (Escherichia coli, UniProt P31122, E29A); assay: SPR affinity assay, SotB variant E29A; conditions: read-out: KD, binding affinity with E29A
T1 construct: The full-length sotB and lapC genes from the E. coli MG1655 genome were subcloned into the cloning vector pET28a; 8xHis (C); made in house; host or cells: E. coli C43(DE3)
T1 sequence (P31122 1-396 E29A): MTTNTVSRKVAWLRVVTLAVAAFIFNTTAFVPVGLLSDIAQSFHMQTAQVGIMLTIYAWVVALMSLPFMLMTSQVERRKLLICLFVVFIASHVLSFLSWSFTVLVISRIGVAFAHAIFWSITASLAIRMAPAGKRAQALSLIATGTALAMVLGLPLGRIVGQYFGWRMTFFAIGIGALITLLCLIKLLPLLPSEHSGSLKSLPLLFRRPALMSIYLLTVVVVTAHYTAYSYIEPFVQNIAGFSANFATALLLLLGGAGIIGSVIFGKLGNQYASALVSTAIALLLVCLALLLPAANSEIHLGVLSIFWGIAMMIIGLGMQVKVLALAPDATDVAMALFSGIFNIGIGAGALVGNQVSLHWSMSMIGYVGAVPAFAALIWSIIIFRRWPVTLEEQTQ
Description: (§1) The instrument used in surface plasmon resonance (SPR) affinity assays was OpenSPR (Nicoya, Canada) and the chip used was COOH sensor chip (Nicoya, Canada). SotB and its variants were as ligands. IPTG, L-arabinose, D-xylose, D-glucose, D-fructose, and D-mannose were as small molecules. Using HSB-EP buffer (10 mM HEPES, 150 mM NaCl, 3 mM EDTA, 0.005% Tween-20, pH7.4) as test buffer and setting flow rate 150 μl/min after installed COOH chip according to OpenSPRTM instrument standard operating procedure. After the signal baseline was reached, loading 200 μl 80% isopropyl alcohol and ran for 10 s to drain bubbles. After reaching baseline, the sample ring was rinsed with HSB-EP buffer and emptied with air. After the signal reached the baseline, loading 200 μl EDC (400 mM, Sigma)/NHS (100 mM, Sigma; 1:1) solution with a flow rate 20 μl/min for 4 min. Then, loading 200 μl ligand (SotB/SotB variants) diluted by the activation buffer (sodium acetate, 10 mM, pH3.5) and ran for 4 min (20 μl/min). Then the sample ring was rinsed with HSB-EP buffer and emptied with air. Loading 200 μl 1 M ethanolamine (Sigma) blocking solution (20 μl/min, 4 min), rinsed the sample ring with HSB-EP buffer, and emptied the sample ring with air. Observing baseline for 5 min to ensure stability. […]

SotB W119A = target: T2, SotB W119A (Escherichia coli, UniProt P31122, W119A); assay: SPR affinity assay, SotB variant W119A; conditions: read-out: KD, binding affinity with W119A
T2 construct: The full-length sotB and lapC genes from the E. coli MG1655 genome were subcloned into the cloning vector pET28a; 8xHis (C); made in house; host or cells: E. coli C43(DE3)
T2 sequence (P31122 1-396 W119A): T1 sequence (P31122 1-396 E29A) with A29E, W119A
Description: as §1

OC1OC[C@H](O)[C@H](O)[C@H]1O (mixture of isomers) [L-arabinose]
Effect on growth (OD600 growth curve) ([1]; sotB-deletion MG1655, 10 mM final concentration): significantly inhibit
Effect on growth (OD600 growth curve) ([1]; sotB-deletion MG1655, 100 mM final concentration): significantly inhibit
Growth of intact MG1655 compared to sotB-deletion MG1655 ([2]; in the presence of 1 mM L-arabinose): grew better
Effect on growth (OD600 growth curve) ([2]; intact MG1655, 10 mM final concentration): significantly inhibit
Effect on growth (OD600 growth curve) ([2]; intact MG1655, 100 mM final concentration): significantly inhibit
Kd (SotB E29A): 5.1 mM
Kd (SotB W119A): 4.9 mM
